The values below come from patent publication US20060258750A1, “Use of bicyclo[2.2.1]heptane derivatives for the preparation of neuroprotective pharmaceutical compositions” (priority 2003, published 2006).

“Also recorded” adds a separate entry of the source. Marks after values point to notes of the source that are not given here.

The test system of assay [1] is hippocampal CA1 pyramidal cell death. Briefly: Global cerebral ischemia by 3 min bilateral carotid artery occlusion (BCO): hippocampal CA1 neuronal damage score. The assay is classed as in vivo, Mongolian gerbils. The method, then:
(§1) In our experiments male Mongolian gerbils weighing 50-80 g were used. Deramciclane was administered at 3×30 mg/kg intraperitoneally 60 min before, 30 and 90 min after surgery. Deramciclane was suspended in 0.4% methyl-cellulose solution. In ether narcosis, the right and left common carotid arteries were exposed through an anterior midline cervical incision and isolated from the vagus nerves and the surrounding tissues. Full arrest of carotid blood flow was achieved by tightening an aneurysm clip for 3 min. During surgery the body temperature of the animals was kept at the individual preoperative level (37.5±0.5° C.) with the help of a heating pad and a heating lamp.
After behavioural testing the animals were anesthetized with 60 mg/kg i.p. pentobarbital (10 ml/kg) and perfused through the heart first with saline then with a fixative solution containing 0.1% glutaraldehyde, 4% paraformaldehyde, and 0.2% picric acid in 0.1 M phosphate buffer pH 7.4 for 30 min. The brain was removed from the skull and post-fixed for at least 1 week at 4° C. in the same fixative solution.
Alternate coronal sections of 60 μm thickness were cut from different levels of the dorsal hippocampus by a microtone. The sections were repeatedly washed in 0.1 M phosphate buffer then stained by silver impregnation.
The sections were examined under light microscopy and the overall neuronal damage in the hippocampal CA1 subfield in both hippocampi was scored on a 6-point scale: (0) undamaged, (1)<10%, (2) 10-30%, (3) 30-50%, (4) 50-70%, (5) 70-90%, and (6) 90-100% cell loss. Group differences between drug-treated and vehicle-treated groups were statistically analysed by Mann-Whitney U-test.

For assay [2], the system named is Mongolian gerbils. The assay is described as follows: Global cerebral ischemia (BCO): locomotor activity in symmetrical Y-maze four days after surgery. It counts as in vivo. The method, then:
as §1
The Mongolian gerbils were placed in the centre of the maze then the number of entries into the three arms was recorded for 5 min. By definition, the animal performed an arm entry when it entered the arm and proceeded at least the distance of its body length. The gerbil was considered to exit the arm when it left it fully. Differences between groups were statistically evaluated by Kruskal-Wallis ANOVA. In case of p<0.05 significance Mann-Whitney U-test was used for paired comparisons.

The conditions of assay [3]: 1 and 10 mg/kg after oral administration; cited from earlier work.
For assay [4] the following is noted: single 0.7 mg/kg oral treatment; cited from earlier work.
The conditions of assay [5]: single oral dose of 3 mg/kg; cited from earlier work.
The conditions of assay [6]: 10 and 30 mg/kg after oral treatment; cited from earlier work.
The conditions of assay [7]: cited from earlier work.
For assay [8] the following is noted: 1 and 10 mg/kg ip.; cited from earlier work.
Assay [9] deals with central 5-HT2C receptors (Homo sapiens, UniProt P28335). The settings on record: cited from earlier work.
Sequence of central 5-HT2C receptors (P28335 33-458): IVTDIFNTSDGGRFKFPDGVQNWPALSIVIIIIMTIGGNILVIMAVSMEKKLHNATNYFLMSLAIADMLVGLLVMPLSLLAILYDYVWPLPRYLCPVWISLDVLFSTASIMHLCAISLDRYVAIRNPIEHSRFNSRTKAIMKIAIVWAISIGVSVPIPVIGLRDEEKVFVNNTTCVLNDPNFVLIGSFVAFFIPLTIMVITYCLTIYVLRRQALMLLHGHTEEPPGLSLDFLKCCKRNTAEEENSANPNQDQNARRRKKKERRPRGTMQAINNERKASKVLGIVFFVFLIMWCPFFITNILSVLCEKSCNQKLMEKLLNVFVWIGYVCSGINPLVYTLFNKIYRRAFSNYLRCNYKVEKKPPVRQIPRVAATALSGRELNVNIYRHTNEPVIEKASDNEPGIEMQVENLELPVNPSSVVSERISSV
For assay [10], the target named is central 5-HT2A receptors (Homo sapiens, UniProt P28223). The conditions noted are these: cited from earlier work.
Sequence of central 5-HT2A receptors (P28223 whole entry): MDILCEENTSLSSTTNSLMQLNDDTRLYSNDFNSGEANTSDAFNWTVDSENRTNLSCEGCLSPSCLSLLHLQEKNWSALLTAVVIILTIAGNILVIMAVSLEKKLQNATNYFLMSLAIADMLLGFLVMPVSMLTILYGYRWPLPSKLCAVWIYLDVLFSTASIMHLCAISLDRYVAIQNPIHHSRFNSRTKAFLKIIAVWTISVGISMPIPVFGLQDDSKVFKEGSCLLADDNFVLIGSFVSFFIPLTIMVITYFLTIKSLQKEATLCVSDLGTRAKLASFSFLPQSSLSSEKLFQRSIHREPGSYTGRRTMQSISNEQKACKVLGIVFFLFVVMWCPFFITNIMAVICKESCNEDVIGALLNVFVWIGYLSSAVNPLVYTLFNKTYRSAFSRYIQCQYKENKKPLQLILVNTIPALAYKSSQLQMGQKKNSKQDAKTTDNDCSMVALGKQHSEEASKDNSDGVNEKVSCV
Assay [11] has as its system brain damage after transient global cerebral ischaemia. The settings on record: global cerebral ischaemia in gerbils; cited from earlier work.
[12] abbreviates: 3 × 30 mg/kg i.p., compared to the BCO group.
[13] abbreviates: in the applied dose (3 × 30 mg/kg i.p.).

Consider `CN(C)CCO[C@]1(c2ccccc2)C[C@H]2CC[C@]1(C)C2(C)C` [deramciclane, (1R,2S,4R)-(−)-2-(2-dimethylaminoethoxy)-2-phenyl-1,7,7-trimethyl-bicyclo[2.2.1]heptane], for which, in [1] (3 × 30 mg/kg i.p. (60 min before, 30 and 90 min after surgery), 6-point scale 0-6, BCO control 4.90), the “CA1 cell death (score)” value is 0.89** score. In addition, the “Effect % (CA1 cell death)” value in assay [1] (setting [12]) is recorded as −82%. In addition, the “proportion of cell death in the hippocampal CA1 region (in words)” value in [1] (setting [13]) is given as “significantly reduced”. Further, the “Number of arm entries” value in assay [2] (3 × 30 mg/kg i.p., Y-maze, 5 min, four days after surgery, sham 40.25, BCO 65.44) is listed as 38.78**. Besides, the “Effect % (number of arm entries)” value in [2] (setting [12]) was −100%. In addition, in assay [2] (setting [13]), the “locomotor activity of animals (in words)” value is on record as “decreased the locomotor activity of animals into the normal range”. Further, in [3], the “activity in Vogel punished drinking test” value is “active”. Moreover, the “time spent with social interactions” value in [4] was “increased”. Moreover, in assay [5], the “activity in light-dark test” value is reported as “active”. The “activity in marble burying test” value in assay [6] is “active”. Besides, in assay [7] (CCK-induced anxiety), the “anxiety caused by CCK in elevated plus maze test” value is recorded as “antagonized”. For the same compound, the “activity in elevated plus maze test” value in assay [7] (in vivo) is “ineffective”. In assay [8], the “antidepressant activity in learned helplessness test” value is reported as “produced antidepressant activity”. Besides, in [9], the “binding to central 5-HT2C receptors (in words)” value is listed as “binds primarily”. Also, the “binding to central 5-HT2A receptors (in words)” value in assay [10] is given as “binds primarily”.
Take `Cc1nc2sccn2c(=O)c1CCN1CCC(=C(c2ccc(F)cc2)c2ccc(F)cc2)CC1` [ritanserin]: the neuroprotective activity entry in assay [11] is given as “did not show neuroprotective activity; also recorded: did not produce neuroprotective effect”.
